In US11267825B2 (AICURIS GMBH & CO. KG, priority 2017, dated 2022):
Where two headings read alike, the source gives them in different places.

Experiments:
[1] = test system: HepAD38 cells; test: Cell viability assay (AlamarBlue) in HepAD38 cells; conditions: HepAD38 cells in the presence of 0.3 μg/ml tetracycline, six days incubation
[2] = test system: HBV; test: Determination of HBV DNA from the supernatants of HepAD38 cells (anti-HBV activity); format: cell-based, hepatitis B virus; conditions: HBV DNA in HepAD38 supernatant at day 6, read-out: Cell Activity (EC50)
Method in brief: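 EC50 values were obtained by non-linear regression of HBV DNA copy numbers measured by qPCR against pCH-9/3091 plasmid standards. The DNA came from filtered supernatants collected on day 6. Before that, tetracycline-withdrawn HepAD38 cells had been exposed to serial half-log compound dilutions, with tetracycline-treated cells as the non-producing control.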

[3] = target: HBV core protein (UniProt P03146); format: biochemical
Sequence of HBV core protein (P03146 whole entry, looked up, the tested form may be a part): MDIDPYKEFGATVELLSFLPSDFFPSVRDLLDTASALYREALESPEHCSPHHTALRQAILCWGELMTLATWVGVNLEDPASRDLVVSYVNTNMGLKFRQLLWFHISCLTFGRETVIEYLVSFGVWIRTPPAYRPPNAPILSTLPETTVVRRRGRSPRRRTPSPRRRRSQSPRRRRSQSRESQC
Method in brief: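 Compounds tested at 8 concentrations in 0.5-log steps from 100, 31.6 or 10 μM against 1.0–2.0 μM BODIPY-FL-labelled Cys150 core dimers (residues 1–149), 50 mM HEPES pH 7.5. NaCl ([…] final) triggered assembly; quenching read at 6 min, 477/525 nm, with 2.5 M and 0 M NaCl as controls; EC50 by nonlinear fit.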

[4] = BODIPY-FL labelled core protein, assembly started with NaCl, read after 6 min; read-out: Assembly Activity (IC50)

Row | Compound | CC50 [1] [µM] | EC50 [2] [µM] | IC50 [3, 4] [µM] | EC50 ([2]; Hepatitis B virus, 144 h) [µM] | IC50 ([3]; read-out: Assembly Activity (IC50); BODIPY-FL labelled core protein, assembly started with NaCl, read after 6 min) [µM]
1 | O=C(c1cc2c(Cl)c(F)ccc2[nH]1)N1CCc2nc(N[C@H]3C[C@H](O)C3)sc2C1 [Example 355, (1r,3r)-3-{[5-(4-chloro-5-fluoro-1H-indole-2-carbonyl)-4H,5H,6H,7H-[1,3]thiazolo[5,4-c]pyridin-2-yl]amino}cyclobutan-1-ol] | > 10 | < 1 | < 5 |  | 
2 | O=C(c1cc2c(Cl)cc(F)cc2[nH]1)N1CCc2nc(N[C@H]3C[C@H](O)C3)sc2C1 [Example 356, (1r,3r)-3-{[5-(4-chloro-6-fluoro-1H-indole-2-carbonyl)-4H,5H,6H,7H-[1,3]thiazolo[5,4-c]pyridin-2-yl]amino}cyclobutan-1-ol] | > 10 | < 1 | < 5 |  | 
3 | O=C(c1cc2ccc(Cl)cc2[nH]1)N1CCc2nc(N[C@H]3C[C@H](O)C3)sc2C1 [Example 357, (1r,3r)-3-{[5-(6-chloro-1H-indole-2-carbonyl)-4H,5H,6H,7H-[1,3]thiazolo[5,4-c]pyridin-2-yl]amino}cyclobutan-1-ol] | > 10 | < 1 | < 5 |  | 
4 | O=C(Nc1nc2c(s1)CN(C(=O)c1cc3ccccc3[nH]1)CC2)C1[C@H]2COC[C@@H]12 (stereo partly drawn) [Example 358, (1R,5S,6R)—N-[5-(1H-indole-2-carbonyl)-4H,5H,6H,7H-[1,3]thiazolo[5,4-c]pyridin-2-yl]-3-oxabicyclo[3.1.0]hexane-6-carboxamide] | > 10 | < 1 | < 5 |  | 
5 | O=C(Nc1nc2c(s1)CN(C(=O)c1cc3ccccc3[nH]1)CC2)C1[C@H]2CNC[C@@H]12 (stereo partly drawn) [Example 359, (1R,5S,6R)—N-[5-(1H-indole-2-carbonyl)-4H,5H,6H,7H-[1,3]thiazolo[5,4-c]pyridin-2-yl]-3-azabicyclo[3.1.0]hexane-6-carboxamide] | > 10 | < 1 | < 5 |  | 
6 | O=C(Nc1nc2c(s1)CN(C(=O)c1cc3ccccc3[nH]1)CC2)C1[C@H]2CNC[C@@H]12 (stereo partly drawn) [Example 360, (1R,5S,6S)—N-[5-(1H-indole-2-carbonyl)-4H,5H,6H,7H-[1,3]thiazolo[5,4-c]pyridin-2-yl]-3-azabicyclo[3.1.0]hexane-6-carboxamide] | > 10 | < 1 | < 5 |  | 
7 | O=C(Nc1nc2c(s1)CN(C(=O)c1cc3ccccc3[nH]1)CC2)C1[C@H]2COC[C@@H]12 (stereo partly drawn) [Example 361, (1R,5S,6S)—N-[5-(1H-indole-2-carbonyl)-4H,5H,6H,7H-[1,3]thiazolo[5,4-c]pyridin-2-yl]-3-oxabicyclo[3.1.0]hexane-6-carboxamide] | > 10 | < 1 |  |  | 
8 | CCc1cc(F)cc2[nH]c(C(=O)N3CCc4nc(N[C@H]5C[C@H](O)C5)sc4C3)cc12 [Example 376, (1r,3r)-3-{[5-(4-ethyl-6-fluoro-1H-indole-2-carbonyl)-4H,5H,6H,7H-[1,3]thiazolo[5,4-c]pyridin-2-yl]amino}cyclobutan-1-ol] | > 10 | < 1 |  |  | 
9 | O=C(c1cc2c(F)c(F)ccc2[nH]1)N1CCc2nc(N[C@H]3C[C@H](O)C3)sc2C1 [Example 377, (1r,3r)-3-{[5-(4,5-difluoro-1H-indole-2-carbonyl)-4H,5H,6H,7H-[1,3]thiazolo[5,4-c]pyridin-2-yl]amino}cyclobutan-1-ol] | > 10 | < 1 |  |  | 
10 | O=C(c1cc2c(F)cc(F)cc2[nH]1)N1CCc2nc(N[C@H]3C[C@H](O)C3)sc2C1 [Example 378, (1r,3r)-3-{[5-(4,6-difluoro-1H-indole-2-carbonyl)-4H,5H,6H,7H-[1,3]thiazolo[5,4-c]pyridin-2-yl]amino}cyclobutan-1-ol] | > 10 | < 1 |  |  | 
11 | Cc1cc(F)cc2[nH]c(C(=O)N3CCc4nc(N[C@H]5C[C@H](O)C5)sc4C3)cc12 [Example 379, (1r,3r)-3-{[5-(6-fluoro-4-methyl-1H-indole-2-carbonyl)-4H,5H,6H,7H-[1,3]thiazolo[5,4-c]pyridin-2-yl]amino}cyclobutan-1-ol] | > 10 | < 1 |  |  | 
12 | CCc1cccc2[nH]c(C(=O)N3CCc4nc(N[C@H]5C[C@H](O)C5)sc4C3)cc12 [Example 380, (1r,3r)-3-{[5-(4-ethyl-1H-indole-2-carbonyl)-4H,5H,6H,7H-[1,3]thiazolo[5,4-c]pyridin-2-yl]amino}cyclobutan-1-ol] | > 10 | < 1 |  |  | 
13 | O=C(c1cc2c(Cl)cccc2[nH]1)N1CCc2nc(N[C@H]3C[C@H](O)C3)sc2C1 [Example 381, (1r,3r)-3-{[5-(4-chloro-1H-indole-2-carbonyl)-4H,5H,6H,7H-[1,3]thiazolo[5,4-c]pyridin-2-yl]amino}cyclobutan-1-ol] | > 10 | < 1 |  |  | 
14 | O=C(c1cc2ccccc2[nH]1)N1CCc2nc(N[C@H]3C[C@@H](O)C3)sc2C1 [Example 388, (1s,3s)-3-{[5-(1H-indole-2-carbonyl)-4H,5H,6H,7H-[1,3]thiazolo[5,4-c]pyridin-2-yl]amino}cyclobutan-1-ol] | > 10 | < 1 |  |  | 
15 | O=C(c1cc2c(F)c(F)ccc2[nH]1)N1CCc2nc(N[C@H]3CC[C@@H](O)CC3)sc2C1 [Example 395, (1s,4s)-4-{[5-(4,5-difluoro-1H-indole-2-carbonyl)-4H,5H,6H,7H-[1,3]thiazolo[5,4-c]pyridin-2-yl]amino}cyclohexan-1-ol] | > 10 | < 1 | < 5 |  | 
16 | O=C(c1cc2ccccc2[nH]1)N1CCc2nc(N[C@H]3C[C@H](O)C3)sc2C1 [Example 397, (1r,3r)-3-{[5-(1H-indole-2-carbonyl)-4H,5H,6H,7H-[1,3]thiazolo[5,4-c]pyridin-2-yl]amino}cyclobutan-1-ol] | > 10 | < 1 | < 5 |  | 
17 | CN(C)C1(CNc2nc3c(s2)CN(C(=O)c2cc4ccccc4[nH]2)CC3)CCC1 [Example 433, N-{[1-(dimethylamino)cyclobutyl]methyl}-5-(1H-indole-2-carbonyl)-4H,5H,6H,7H-[1,3]thiazolo[5,4-c]pyridin-2-amine] |  |  |  | < 1 | < 5
18 | (2S)-2-amino-3-{[5-(1H-indole-2-carbonyl)-4H,5H,6H,7H-[1,3]thiazolo[5,4-c]pyridin-2-yl]carbamoyl}propanoic acid [Example 444] | > 10 | < 1 | 5 to 10 |  | 
19 | (2S)-2-amino-4-{[5-(1H-indole-2-carbonyl)-4H,5H,6H,7H-[1,3]thiazolo[5,4-c]pyridin-2-yl]carbamoyl}butanoic acid [Example 354] | > 10 | < 1 | < 5 |  | 
20 | N-[5-(1H-indole-2-carbonyl)-4H,5H,6H,7H-[1,3]thiazolo[5,4-c]pyridin-2-yl]piperidine-4-carboxamide hydrochloride [Example 385] | > 10 | < 1 |  |  | 
21 | tert-butyl 3-{[5-(1H-indole-2-carbonyl)-4H,5H,6H,7H-[1,3]thiazolo[5,4-c]pyridin-2-yl]carbamoyl}azetidine-1-carboxylate [Example 387] | > 10 | < 1 |  |  | 
22 | tert-butyl 4-{[5-(1H-indole-2-carbonyl)-4H,5H,6H,7H-[1,3]thiazolo[5,4-c]pyridin-2-yl]carbamoyl}piperidine-1-carboxylate [Example 384] | > 10 | < 1 |  |  | 
